Data taken from patent US6162925A, “Antibiotic for methicillin resistant bacteria” (Research Corporation Tech., Inc., priority 1999, dated 2000).
≈ marks a conversion by molar mass, not a printed value. Read-outs that look alike come from different tables or passages of the source.

Assays:
[1] = test system: Staphylococcus aureus ATCC 33593; experiment: MIC, broth microdilution (NCCLS), S. aureus ATCC 33593; format: cell-based; details: read-out: Minimal Inhibitory Concentration (MIC)
Description: (§1) Test compounds were assayed against Staphylococcus aureus FDA 209P by the 10 fold agar disc diffusion assay on BHI-plates at pH=7 and pH=9 in accordance with the procedure from the National Committee for Clinical Laboratory Standards 1989. Susceptibility testing. A panel of 16 bacteria was used to evaluate the antimicrobial activity of the compounds (Table 2). The MIC of each antimicrobial agent was determined using a microdilution method according to NCCLS standards^1. Serial twofold dilutions of antibiotics were prepared in Mueller-Hinton broth (Difco Laboratories, Detroit, Mich.). Bacteria were grown to early log phase at 35° C. (1 hours) in Mueller-Hinton broth and cultures were diluted to achieve a final inoculum of 5×10^5 CFU per ml. Microtiter plates were incubated at 35° C. for 20 h and then were read using a Thermomax microplate reader (Molecular Devices, Sunnyvale, Calif.) and a microtiter plate reading mirror. The MIC was defined as the lowest concentration of antibiotic which inhibited the development of visible growth at the end of the incubation period. The standard reference strains were Staphyloccocus aureus ATCC […], Enterococcus faecalis ATCC 29212, E. faecium ATCC 35667, Escherichia coli ATCC 25922, and Pseudomonas aeruginosa ATCC 27853. Imipenem and vancomycin were used as antibiotic controls and values for reference strains were in accordance with the NCCLS.
Staphylococcus ATCC Methicillin
aureus ATCC 33593 resistant, β-

[2] = test system: Staphylococcus aureus COL8A; experiment: MIC, broth microdilution (NCCLS), S. aureus COL8A; format: cell-based; details: 20 h, read-out: Minimal Inhibitory Concentration (MIC)
Description: as §1
(§2) Staphylococcus Methicillin
aureus COL8A susceptible, […]

[3] = test system: Enterococcus faecalis V583; experiment: MIC, broth microdilution (NCCLS), E. faecalis V583; format: cell-based; details: read-out: Minimal Inhibitory Concentration (MIC)
Description: as §1
(§3) Enterococcus Vancomycin
faecalis V583 resistant, vanB

Staphylococcus aureus 76 = experiment: MIC, broth microdilution (NCCLS), S. aureus 76; format: cell-based; details: read-out: Minimal Inhibitory Concentration (MIC)
Description: as §1, §2

[4] = test system: Enterococcus faecalis ATCC 29212; experiment: MIC, broth microdilution (NCCLS), E. faecalis ATCC 29212; format: cell-based; details: read-out: Minimal Inhibitory Concentration (MIC)
Description: as §1
(§4) Enterococcus ATCC Reference strain

[5] = test system: Staphylococcus haemolyticus UA281; experiment: MIC, broth microdilution (NCCLS), S. haemolyticus UA281; format: cell-based; details: read-out: Minimal Inhibitory Concentration (MIC)
Description: as §1, §2
haemolyticus UA281 resistant

[6] = test system: Staphylococcus aureus ATCC 29213; experiment: MIC, broth microdilution (NCCLS), S. aureus ATCC 29213; format: cell-based; details: read-out: Minimal Inhibitory Concentration (MIC)
Description: as §1
Staphylococcus ATCC Reference strain

[7] = test system: Enterococcus faecium ATCC 35667; experiment: MIC, broth microdilution (NCCLS), E. faecium ATCC 35667; format: cell-based; details: read-out: Minimal Inhibitory Concentration (MIC)
Description: as §1, §4

[8] = test system: Staphylococcus aureus sa ATCC 13709; experiment: MIC, broth microdilution (NCCLS), S. aureus sa ATCC 13709; format: cell-based; details: read-out: Minimal Inhibitory Concentration (MIC)
Description: as §1

[9] = test system: Escherichia coli ATCC 25922; experiment: MIC, broth microdilution (NCCLS), E. coli ATCC 25922; format: cell-based; details: read-out: Minimal Inhibitory Concentration (MIC)
Description: as §1

[10] = test system: Enterococcus faecium BM4147; experiment: MIC, broth microdilution (NCCLS), E. faecium BM4147; format: cell-based; details: read-out: Minimal Inhibitory Concentration (MIC)
Description: as §1, §3
faecium BM4147 resistant, vanA

[11] = test system: Staphylococcus aureus sa201; experiment: MIC, broth microdilution (NCCLS), S. aureus sa201; format: cell-based; details: read-out: Minimal Inhibitory Concentration (MIC)
Description: as §1
Staphylococcus Clinical isolate,
aureus sa201 Spain resistant, β-

[12] = test system: Staphylococcus aureus PC1; experiment: MIC, broth microdilution (NCCLS), S. aureus PC1; format: cell-based; details: read-out: Minimal Inhibitory Concentration (MIC)
Description: as §1
Staphylococcus Type A βlactamase
aureus PC1 hyperproducer

[13] = test system: Staphylococcus aureus COL; experiment: MIC, broth microdilution (NCCLS), S. aureus COL; format: cell-based; details: 20 h, read-out: Minimal Inhibitory Concentration (MIC)
Description: as §1, §2
aureus COL resistant, β-

[14] = test system: Pseudomonas Aeruginosa ATCC 27853; experiment: MIC, broth microdilution (NCCLS), P. aeruginosa ATCC 27853; format: cell-based; details: read-out: Minimal Inhibitory Concentration (MIC)
Description: as §1

[15] = test system: Enterococcus faecium efm040; experiment: MIC, broth microdilution (NCCLS), E. faecium efm040; format: cell-based; details: read-out: Minimal Inhibitory Concentration (MIC)
Description: as §1
Enterococcus Clinical isolate,
faecium efm040 U.S.A. resistant

[16] = basic aqueous solutions; hydrolytic opening of six-membered ring; cited from earlier work
[17] = cited from earlier work
[18] = ATCC33593, S. aureus ATCC 33593, methicillin resistant, β-lactamase positive, 35° C., 20 h
[19] = E. faecalis V583, vancomycin resistant, vanB, 35° C., 20 h
[20] = Staphylococcus aureus, S. aureus 76, methicillin resistant, β-lactamase positive, 35° C., 20 h
[21] = ATCC29212, E. faecalis ATCC 29212, reference strain, 35° C., 20 h
[22] = S. haemolyticus UA281, methicillin resistant, 35° C., 20 h
[23] = ATCC29213, S. aureus ATCC 29213, reference strain, 35° C., 20 h
[24] = ATCC35667, E. faecium ATCC 35667, reference strain, 35° C., 20 h
[25] = ATCC13709, S. aureus sa ATCC 13709, Smith strain, 35° C., 20 h
[26] = ATCC25922, E. coli ATCC 25922, reference strain, 35° C., 20 h
[27] = E. faecium BM4147, vancomycin resistant, vanA, 35° C., 20 h
[28] = S. aureus sa201, clinical isolate Spain, methicillin resistant, β-lactamase positive, 35° C., 20 h
[29] = S. aureus PC1, Type A βlactamase hyperproducer, 35° C., 20 h
[30] = S. aureus COL, methicillin resistant, β-lactamase negative, 35° C.
[31] = ATCC27853, P. aeruginosa ATCC 27853, reference strain, 35° C., 20 h
[32] = E. faecium efm040, clinical isolate U.S.A., ampicillin resistant, 35° C., 20 h

| Structure (SMILES) | MIC [2] | MIC [1, 18] | MIC [3, 19] | MIC (Staphylococcus aureus 76; [20]) | MIC [4, 21] | MIC [5, 22] | MIC [6, 23] | MIC [7, 24] | MIC [8, 25] | MIC [9, 26] | MIC [10, 27] | MIC [11, 28] | MIC [12, 29] | MIC [13, 30] | MIC [14, 31] | MIC [15, 32] | also measured |
| --- | --- | --- | --- | --- | --- | --- | --- | --- | --- | --- | --- | --- | --- | --- | --- | --- | --- |
| CN[C@H](CC(C)C)C(=O)N[C@H]1C(=O)N[C@@H](CC(N)=O)C(=O)N[C@H]2C(=O)N[C@H]3C(=O)N[C@H](C(=O)N[C@H](C(=O)O)c4cc(O)cc(O)c4-c4cc3ccc4O)[C@H](O)c3ccc(c(Cl)c3)Oc3cc2cc(c3O[C@@H]2O[C@H](CO)[C@@H](O)[C@H](O)[C@H]2O[C@H]2C[C@](C)(N)[C@H](O)[C@H](C)O2)Oc2ccc(cc2Cl)[C@H]1O [Vancomycin, vancomycin] | ≤ 0.25 µg/mL |  |  |  |  |  |  |  |  |  |  |  |  |  |  |  | MIC ([1]; ATCC33593, 20 h): 0.5 µg/mL (≈ 0.345 µM); MIC ([3]; V583, 20 h): 16 µg/mL (≈ 11 µM); MIC (Staphylococcus aureus 76; Staphylococcus aureus, 76, 20 h): ≤ 0.25 µg/mL; MIC ([4]; ATCC29212, 20 h): 1 µg/mL (≈ 0.69 µM); MIC ([5]; UA281, 20 h): 1 µg/mL (≈ 0.69 µM); MIC ([6]; ATCC29213, 20 h): ≤ 0.25 µg/mL; MIC ([7]; ATCC35667, 20 h): ≤ 0.25 µg/mL; MIC ([8]; ATCC13709, 20 h): ≤ 0.25 µg/mL; MIC ([9]; ATCC25922, 20 h): > 128 µg/mL; MIC ([10]; BM4147, 20 h): > 128 µg/mL; MIC ([11]; SA201, 20 h): 0.5 µg/mL (≈ 0.345 µM); MIC ([12]; PC1, 20 h): ≤ 0.25 µg/mL; MIC [13]: 1 µg/mL (≈ 0.69 µM); MIC ([14]; ATCC27853, 20 h): > 128 µg/mL; MIC ([15]; EFM040, 20 h): ≤ 0.25 µg/mL |
| C[C@@H](O)[C@H]1C(=O)N2C(C(=O)O)=C(SCCN=CN)C[C@H]12 [Imipenem] | ≤ 0.25 µg/mL | 8 µg/mL (≈ 26.7 µM) | 0.5 µg/mL (≈ 1.67 µM) | 8 µg/mL (≈ 26.7 µM) | 0.5 µg/mL (≈ 1.67 µM) | 64 µg/mL (≈ 214 µM) | ≤ 0.25 µg/mL | 4 µg/mL (≈ 13.4 µM) | ≤ 0.25 µg/mL | ≤ 0.25 µg/mL | 8 µg/mL (≈ 26.7 µM) | 64 µg/mL (≈ 214 µM) | ≤ 0.25 µg/mL | 32 µg/mL (≈ 107 µM) | 1 µg/mL (≈ 3.34 µM) | > 128 µg/mL |  |
| CC(=O)NC1=NC(=O)C(N(C)C(=O)C[C@@H](N)CCCNC(=N)N)CN1 (some centres unmarked) [Compound 73a, 3S,5'S/R-3-amino-6-[(aminoiminomethyl)amino]-N-(2-acetylamino-1,4,5,6-tetrahydro-4-oxo-5-pyrimidinyl)-N-methyl-hexanamide] | 16 µg/mL (≈ 45.1 µM) | 8 µg/mL (≈ 22.6 µM) |  | 16 µg/mL (≈ 45.1 µM) | 32 µg/mL (≈ 90.3 µM) | 128 µg/mL (≈ 361 µM) | 16 µg/mL (≈ 45.1 µM) | 64 µg/mL (≈ 181 µM) | 16 µg/mL (≈ 45.1 µM) | 128 µg/mL (≈ 361 µM) | 128 µg/mL (≈ 361 µM) | 16 µg/mL (≈ 45.1 µM) | 8 µg/mL (≈ 22.6 µM) | 16 µg/mL (≈ 45.1 µM) | 256 µg/mL (≈ 722 µM) | 256 µg/mL (≈ 722 µM) |  |
| CN(C(=O)C[C@@H](N)CCCNC(=N)N)[C@@H]1CNC(NC(N)=O)=NC1=O [TAN-1057B] |  |  |  |  |  |  |  |  |  |  |  |  |  |  |  |  | loss of antibacterial activity in basic aqueous solutions [16]: gradually lost their antibacterial activities in basic aqueous solutions |
| CN1C(=O)C[C@H](CCCNC(=N)N)NC(=O)[C@H]1CNC(=N)NC(N)=O [TAN-1057C] |  |  |  |  |  |  |  |  |  |  |  |  |  |  |  |  | conversion upon standing in water [17]: rapidly convert to a mixture of TAN-1057A/B upon standing in water |
| COC(=O)NC1=NC(=O)C(N(C)C(=O)C[C@@H](N)CCCNC(=N)N)CN1 (some centres unmarked) [Compound 73c, 3S,5'S/R-3-amino-6-[(aminoiminomethyl)amino]-N-(2-methoxycarbonylamino-1,4,5,6-tetrahydro-4-oxo-5-pyrimidinyl)-N-methyl-hexanamide] | 64 µg/mL (≈ 173 µM) | 64 µg/mL (≈ 173 µM) | 64 µg/mL (≈ 173 µM) | 64 µg/mL (≈ 173 µM) | 64 µg/mL (≈ 173 µM) | 256 µg/mL (≈ 691 µM) | 64 µg/mL (≈ 173 µM) | 128 µg/mL (≈ 346 µM) | 32 µg/mL (≈ 86.4 µM) | > 256 µg/mL | 64 µg/mL (≈ 173 µM) | 64 µg/mL (≈ 173 µM) | 32 µg/mL (≈ 86.4 µM) | 64 µg/mL (≈ 173 µM) | > 256 µg/mL | > 256 µg/mL |  |
